This is an account of results in patent US20260035365A1, “1H-PYRROLO[3,2-B]PYRIDINE DERIVATIVES AS IRREVERSIBLE INHIBITORS OF MUTANT EGFR FOR THE TREATMENT OF CANCER” (Bayer Aktiengesellschaft, priority 2022, published 2026).

pIC50: −log10 of the molar value.

In test [1] the target is mutEGFR (D770_N771insSVD) (Homo sapiens, UniProt P00533, INS767SVD). Description: Exon20-mutant-EGFR (D770_N771insSVD) TR-FRET kinase assay. It counts as biochemical. The conditions noted are these: 2 mM ATP, 15 min preincubation. An excerpt:
Inhibitory activity of compounds of the present invention against an Epidermal Growth Factor Receptor (EGFR) with an insertion of the amino acids sequence SVD between D770 and N771 (SEQ ID No. 5) was quantified employing the TR-FRET based kinase activity assay as described in the following paragraphs.
A recombinant fusion protein of N-terminal Glutathion-S-Transferase (GST) and a fragment of human EGFR variant (amino acids R669 to A1210 with insertion of the amino acids sequence SVD between D770 and N771 (SEQ ID No. 5) (“EGFR ins SVD”), expressed in Sf9 insect cells and purified via affinity chromatography using Glutathion Sepharose as described above, was used as a kinase. As substrate for the kinase reaction the biotinylated peptide biotin-Ahx-AEEEEYFELVAKKK (C-terminus in amide form) (SEQ ID No. 6) was used which can be purchased e.g. form the company Biosynthan GmbH (Berlin-Buch, Germany).
For the assay 50 nl of a 100-fold concentrated solution of the test compound in DMSO was pipetted into either a black low volume 384 well microtiter plate or a black 1536 well microtiter plate (both Greiner Bio-One, Frickenhausen, Germany), 2 μl of a solution of EGFR in aqueous assay buffer [50 mM Hepes pH 7.0, 10 mM MgCl2, 1 mM dithiothreitol, 0.5 mM EGTA, 0.3 mM activated sodium ortho-vanadate, 0.005% (w/v) bovine serum albumin, 0.005% (v/v) Tween-20] were added and the mixture was incubated for 15 min at 22° C. to allow pre binding of the test compounds to the enzyme before the start of the kinase reaction. […] The concentration of EGFR was adjusted depending of the activity of the enzyme lot and was chosen appropriate to have the assay in the linear range, typical concentration was 15 pg/μl. The reaction was stopped by the addition of 3 μl of a solution of HTRF detection reagents (83.3 nM streptavidine-XL665 [Cisbio Bioassays, Codolet, France] and 1.67 nM PT66-Tb-Cryptate, a terbium-cryptate labelled anti-phospho-tyrosine antibody from Cisbio Bioassays [instead of the PT66 Tb cryptate PT66 Eu Chelate from Perkin Elmer can also be used]) in an aqueous EDTA-solution (133.3 mM EDTA, 0.2% (w/v) bovine serum albumin in 50 mM HEPES pH 7.5).
The resulting mixture was incubated 1 h at 22° C. to allow the binding of the biotinylated phosphorylated peptide to the streptavidine-XL665 and the PT66-Tb-Cryptate. Subsequently, the amount of phosphorylated substrate was evaluated by measurement of the resonance energy transfer from the PT66-Tb-Cryptate to the streptavidine-XL665. Therefore, the fluorescence emissions at 620 nm and 665 nm after excitation at 337 nm were measured in a HTRF reader, e.g. a Pherastar (BMG Labtechnologies, Offenburg, Germany) or a Viewlux (Perkin-Elmer). The ratio of the emissions at 665 nm and at […] was taken as the measure for the amount of phosphorylated substrate. The data were normalised (enzyme reaction without inhibitor=0% inhibition, all other assay components but no enzyme=100% inhibition).
(In general: TR-FRET usually uses a lanthanide donor and a delayed reading to cut background.)

The target of test [2] is mutEGFR (D770_N771insNPG, T790). The test can be described thus: mutEGFR (D770_N771insNPG, T790) kinase assay. It counts as biochemical, human.
mutEGFR (D770_N771insNPG, T790), sequence (P00533 with tags, fused parts or gaps INS770NPG limits assumed): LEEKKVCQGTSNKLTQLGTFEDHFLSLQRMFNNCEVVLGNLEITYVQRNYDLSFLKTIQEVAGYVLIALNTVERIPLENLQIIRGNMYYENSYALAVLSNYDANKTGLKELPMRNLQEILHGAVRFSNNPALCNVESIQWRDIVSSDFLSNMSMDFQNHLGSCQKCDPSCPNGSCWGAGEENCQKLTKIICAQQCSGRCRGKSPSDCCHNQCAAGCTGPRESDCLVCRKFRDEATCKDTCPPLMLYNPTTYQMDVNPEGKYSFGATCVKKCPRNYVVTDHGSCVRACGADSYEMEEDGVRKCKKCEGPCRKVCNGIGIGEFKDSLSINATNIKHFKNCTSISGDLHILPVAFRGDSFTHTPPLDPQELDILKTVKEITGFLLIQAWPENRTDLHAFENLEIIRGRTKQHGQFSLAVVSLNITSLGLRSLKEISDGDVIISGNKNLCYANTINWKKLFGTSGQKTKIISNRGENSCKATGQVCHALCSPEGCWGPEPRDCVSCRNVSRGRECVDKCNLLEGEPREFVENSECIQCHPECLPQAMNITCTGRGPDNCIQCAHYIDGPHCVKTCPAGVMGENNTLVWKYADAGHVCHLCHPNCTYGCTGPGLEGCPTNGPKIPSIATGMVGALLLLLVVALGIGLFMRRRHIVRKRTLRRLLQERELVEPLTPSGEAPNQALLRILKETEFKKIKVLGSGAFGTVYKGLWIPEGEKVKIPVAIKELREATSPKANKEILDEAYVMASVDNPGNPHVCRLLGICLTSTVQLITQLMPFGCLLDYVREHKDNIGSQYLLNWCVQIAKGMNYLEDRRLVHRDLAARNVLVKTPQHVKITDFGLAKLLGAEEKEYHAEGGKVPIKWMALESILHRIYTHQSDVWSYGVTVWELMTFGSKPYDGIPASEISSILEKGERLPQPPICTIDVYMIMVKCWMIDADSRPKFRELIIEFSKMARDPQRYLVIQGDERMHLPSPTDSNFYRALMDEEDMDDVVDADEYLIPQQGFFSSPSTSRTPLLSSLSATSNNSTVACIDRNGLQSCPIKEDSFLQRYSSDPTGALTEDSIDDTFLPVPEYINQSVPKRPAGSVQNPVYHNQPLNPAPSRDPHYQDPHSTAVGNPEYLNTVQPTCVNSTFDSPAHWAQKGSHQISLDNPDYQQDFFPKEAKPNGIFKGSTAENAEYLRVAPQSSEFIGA
The subject of a further test is BA/F3 (insSVD) cells. The test can be described thus: Ba/F3 cell survival assay (Cell Titer-Glo), EGFR-insSVD. It counts as cell-based. As to conditions: Mus musculus, BaF3, 48 h, without IL-3, with EGF. The method, then: 293T cells from ATCC were transfected with pBABEpuro expression constructs for WT EGFR or EGFR-insSVD, or EGFR-insSVD T790M, and pCL-Eco packaging vector using Fugene-6 transfection reagent from Promega. Plates were incubated at 37° C. for 48 h. Retrovirus was harvested by filtering the media supernatant through a 0.45 μm filter.
Ba/F3 cells purchased from DSMZ were grown in RPMI+10% FBS+10 ng/mL IL-3 and infected with filtered retroviral supernatant at a 1:2 dilution. Polybrene was added to a concentration of 8 μg/mL, plates were spun for 90 min, and incubated for 16 h at 37° C. 2 μg/mL puromycin was added to the infected cells 24 h after infection and cells were continually grown in the presence of puromycin and 10 ng/mL IL-3. Following stably expressing Ba/F3 cell lines were generated: Ba/F3-EGFR-WT, Ba/F3-EGFR-insSVD, Ba/F3-EGFR-insSVD T790M, (Ba/F3-vector-control).
For cell survival assays, Ba/F3 cells were grown to a density of 1-2 million cells per mL, spun down and resuspended in media without IL-3, and replated at a concentration of 200,000-500,000 cells per mL. The cells ectopically expressing WT EGFR, EGFR-insSVD, or EGFR-insSVD T790M were plated with 10 ng/mL Millipore Culture grade EGF. The cells ectopically expressing pBABEpuro empty vector were plated with 10 ng/mL IL-3.
2 days later, cells were plated in 50 μL in a 384 well plate at a concentration of 4000 cells per well for cells assayed in the absence of IL-3 and 2000 cells per well for cells assayed in the presence of IL-3. 100 nL of compound was added to each well using a 100 nL pin head, and plates were incubated at 37° C. for 48 h.
Cell viability was measured by adding 20 μL of Cell Titer-Glo Luminescent Cell Viability Reagent diluted 1:3 in PBS. Plates were sealed with Perkin Elmer Top-Seal, inverted several times to mix, and immediately centrifuged at 1000 rpm for 2 min. Plates were incubated in low light conditions for 8-10 min and luminescence was measured.

mutEGFR (D770_N771insSVD), sequence (P00533 with tags, fused parts or gaps INS767SVD limits assumed): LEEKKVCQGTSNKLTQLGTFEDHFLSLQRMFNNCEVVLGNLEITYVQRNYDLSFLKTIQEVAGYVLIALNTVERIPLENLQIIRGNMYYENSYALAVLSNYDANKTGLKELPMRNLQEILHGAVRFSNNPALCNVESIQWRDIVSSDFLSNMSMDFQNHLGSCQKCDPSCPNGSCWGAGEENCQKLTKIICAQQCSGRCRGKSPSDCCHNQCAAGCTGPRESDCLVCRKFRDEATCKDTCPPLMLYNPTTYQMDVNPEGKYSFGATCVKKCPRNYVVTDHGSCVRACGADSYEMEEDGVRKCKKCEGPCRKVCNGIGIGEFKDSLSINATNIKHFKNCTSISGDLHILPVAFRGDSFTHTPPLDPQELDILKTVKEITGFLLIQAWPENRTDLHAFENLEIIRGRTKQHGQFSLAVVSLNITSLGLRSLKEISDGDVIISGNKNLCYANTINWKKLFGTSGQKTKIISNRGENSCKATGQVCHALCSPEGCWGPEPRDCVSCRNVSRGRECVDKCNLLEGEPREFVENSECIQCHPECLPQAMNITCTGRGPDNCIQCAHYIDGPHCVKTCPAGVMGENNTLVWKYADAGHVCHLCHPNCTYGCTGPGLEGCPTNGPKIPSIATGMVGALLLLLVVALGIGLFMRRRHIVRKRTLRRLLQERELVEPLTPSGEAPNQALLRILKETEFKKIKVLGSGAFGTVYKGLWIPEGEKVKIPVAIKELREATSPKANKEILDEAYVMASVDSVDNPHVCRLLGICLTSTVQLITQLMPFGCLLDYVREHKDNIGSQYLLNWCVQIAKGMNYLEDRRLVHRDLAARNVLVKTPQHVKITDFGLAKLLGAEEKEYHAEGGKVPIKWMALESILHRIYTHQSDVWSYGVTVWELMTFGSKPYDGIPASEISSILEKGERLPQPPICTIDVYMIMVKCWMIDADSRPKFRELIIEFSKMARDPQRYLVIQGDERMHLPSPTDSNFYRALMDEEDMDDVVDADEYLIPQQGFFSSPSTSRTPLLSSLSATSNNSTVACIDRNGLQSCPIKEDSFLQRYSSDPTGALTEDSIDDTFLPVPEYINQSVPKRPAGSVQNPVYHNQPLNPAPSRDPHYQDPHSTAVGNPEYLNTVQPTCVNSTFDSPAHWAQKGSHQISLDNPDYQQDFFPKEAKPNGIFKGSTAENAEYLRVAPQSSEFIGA

As usually defined, the pIC50 is −log10 of the IC50, conventionally taken in molar units. For the molecule `C=CS(=O)(=O)N(C)CCOc1cnccc1-c1[nH]c2cccnc2c1-c1ccccc1CC` [Example 72, N-[2-({4-[3-(2-ethylphenyl)-1H-pyrrolo[3,2-b]pyridin-2-yl]pyridin-3-yl}oxy)ethyl]-N-methylethenesulfonamide], the negative-log IC50 (pIC50) is 8.24 in test [1], 7.10 in test [2] and 6.33 in the test with BA/F3 (insSVD) cells.

As to `C=CC(=O)N1CCOCC1COc1cnccc1-c1[nH]c2cccnc2c1-c1cc(Cl)ccc1F` (stereo not drawn) [Example 151, 1-{3-[({4-[3-(5-chloro-2-fluorophenyl)-1H-pyrrolo[3,2-b]pyridin-2-yl]pyridin-3-yl}oxy)methyl]morpholin-4-yl}prop-2-en-1-one], the pIC50 in test [1] was 7.96; in test [2], 7.09; with BA/F3 (insSVD) cells, 6.55.

In the case of `C=CC(=O)N1CC(F)(F)C[C@H]1COc1cnccc1-c1[nH]c2cccnc2c1-c1ccccc1` [Example 112, 1-[(2S)-4,4-difluoro-2-({[4-(3-phenyl-1H-pyrrolo[3,2-b]pyridin-2-yl)pyridin-3-yl]oxy}methyl)pyrrolidin-1-yl]prop-2-en-1-one], the pIC50 in test [1] was 9.67; in test [2], 9.01; with BA/F3 (insSVD) cells, 7.76.

Turning to `C=CS(=O)(=O)N(C)CCOc1cnccc1-c1[nH]c2cccnc2c1-c1cc(C)cc(F)c1` [Example 65, N-[2-({4-[3-(3-fluoro-5-methylphenyl)-1H-pyrrolo[3,2-b]pyridin-2-yl]pyridin-3-yl}oxy)ethyl]-N-methylethenesulfonamide], the pIC50 is 8.61 in test [1], 8.14 in test [2] and 6.57 in the test with BA/F3 (insSVD) cells.

For the molecule `C=CS(=O)(=O)N(C)C[C@H](C)Oc1cnccc1-c1[nH]c2cccnc2c1-c1ccccc1` (stereo in doubt) [Example 134, N-methyl-N—[-2-{[4-(3-phenyl-1H-pyrrolo[3,2-b]pyridin-2-yl)pyridin-3-yl]oxy}propyl]ethenesulfonamide], the negative logarithm of the IC50 (pIC50) was 7.66 in test [1], 7.00 in test [2] and 6.21 in the test with BA/F3 (insSVD) cells.

Consider `C=CC(=O)N1CCC[C@H]1COc1cnccc1-c1[nH]c2cccnc2c1-c1cccc(OC)c1` [Example 83, 1-{(2S)-2-[({4-[3-(3-methoxyphenyl)-1H-pyrrolo[3,2-b]pyridin-2-yl]pyridin-3-yl}oxy)methyl]pyrrolidin-1-yl}prop-2-en-1-one], for which the negative logarithm of the IC50 (pIC50) in test [1] was 8.68; in test [2] it was 8.12; in the test with BA/F3 (insSVD) cells, 6.88.

As to `C=CC(=O)N1CCC[C@H]1COc1cnccc1-c1[nH]c2cccnc2c1-c1ccc2ccsc2c1` [Example 81, 1-{(2S)-2-[({4-[3-(1-benzothiophen-6-yl)-1H-pyrrolo[3,2-b]pyridin-2-yl]pyridin-3-yl}oxy)methyl]pyrrolidin-1-yl}prop-2-en-1-one], the pIC50 in test [1] was 9.41; in test [2], 8.89; in the test on BA/F3 (insSVD) cells, 7.24.

As for `C#Cc1cccc(-c2c(-c3ccncc3OC[C@@H]3CCCN3C(=O)C=C)[nH]c3cccnc23)c1` [Example 102, 1-{(2S)-2-[({4-[3-(3-ethynylphenyl)-1H-pyrrolo[3,2-b]pyridin-2-yl]pyridin-3-yl}oxy)methyl]pyrrolidin-1-yl}prop-2-en-1-one], the negative-log IC50 (pIC50) was 9.38 in test [1], 8.89 in test [2] and 6.87 in the test with BA/F3 (insSVD) cells.

`C=CS(=O)(=O)N1CCC[C@H]1COc1cnccc1-c1[nH]c2c(C)ccnc2c1-c1cc(Cl)ccc1F` [Example 138, 3-(5-chloro-2-fluorophenyl)-2-(3-{[(2S)-1-(ethenesulfonyl)pyrrolidin-2-yl]methoxy}pyridin-4-yl)-7-methyl-1H-pyrrolo[3,2-b]pyridine]: the negative logarithm of the IC50 (pIC50) in test [1] is 9.24; in test [2], 8.87; in the test with BA/F3 (insSVD) cells, 7.57.

`C=CC(=O)N1CCC(Oc2cnccc2-c2[nH]c3cccnc3c2-c2cc(C)ccc2F)C1` (racemic) [Example 124, 1-[(3RS)-3-({4-[3-(2-fluoro-5-methylphenyl)-1H-pyrrolo[3,2-b]pyridin-2-yl]pyridin-3-yl}oxy)pyrrolidin-1-yl]prop-2-en-1-one]: the pIC50 in test [1] was 7.58; in test [2], 6.92; in the test with BA/F3 (insSVD) cells, 6.04.

With `C=C(F)C(=O)N1CCC[C@H]1COc1cnccc1-c1[nH]c2cccnc2c1-c1ccccc1` [Example 91, 2-fluoro-1-[(2S)-2-({[4-(3-phenyl-1H-pyrrolo[3,2-b]pyridin-2-yl)pyridin-3-yl]oxy}methyl)pyrrolidin-1-yl]prop-2-en-1-one], the values for the pIC50 (in test [1]; in test [2]; in the test with BA/F3 (insSVD) cells) were 7.11, 6.11 and 5.83, respectively.

Regarding `C=CS(=O)(=O)N(C)CCOc1cnccc1-c1[nH]c2cccnc2c1-c1cc(Cl)ccc1F` [Example 60, N-[2-({4-[3-(5-chloro-2-fluorophenyl)-1H-pyrrolo[3,2-b]pyridin-2-yl]pyridin-3-yl}oxy)ethyl]-N-methylethenesulfonamide], the pIC50 was 9.09 in test [1], 8.69 in test [2] and 6.81 in the test with BA/F3 (insSVD) cells.

Take `C=CS(=O)(=O)N(C)CCOc1cnccc1-c1[nH]c2cccnc2c1-c1cc(C(F)(F)F)ccc1F` [Example 59, N-{2-[(4-{3-[2-fluoro-5-(trifluoromethyl)phenyl]-1H-pyrrolo[3,2-b]pyridin-2-yl}pyridin-3-yl)oxy]ethyl}-N-methylethenesulfonamide]: the pIC50 in test [1] is 9.30; in test [2], 8.80; with BA/F3 (insSVD) cells, 7.12.

With `C=CS(=O)(=O)N(C)CCOc1cnccc1-c1[nH]c2cccnc2c1-c1cccc(OC(F)(F)F)c1` [Example 74, N-methyl-N-{2-[(4-{3-[3-(trifluoromethoxy)phenyl]-1H-pyrrolo[3,2-b]pyridin-2-yl}pyridin-3-yl)oxy]ethyl}ethenesulfonamide], the pIC50 in test [1] is 7.95; in test [2], 7.23; with BA/F3 (insSVD) cells it was 6.02.

Turning to `C=CS(=O)(=O)N1CC[C@H]1COc1cnccc1-c1[nH]c2cccnc2c1-c1cccc(C(F)(F)F)c1` (single isomer, unassigned) [Example 144], the results for the pIC50 (in test [1]; in test [2]; in the test on BA/F3 (insSVD) cells) were 8.29, 7.72 and 5.82, respectively.

Consider `C=CC(=O)N(C)CCOc1cnccc1-c1[nH]c2cccnc2c1-c1cc(Cl)ccc1F` [Example 43, N-[2-({4-[3-(5-chloro-2-fluorophenyl)-1H-pyrrolo[3,2-b]pyridin-2-yl]pyridin-3-yl}oxy)ethyl]-N-methylprop-2-enamide], for which the values for the negative-log IC50 (pIC50) (in test [1]; in test [2]; in the test on BA/F3 (insSVD) cells) were 7.93, 7.48 and 6.27, respectively.
